Reference: patent US5117052A, “Physiologically active substances, benastatins A and B, and production and use thereof” (priority 1990, dated 1992)
pIC50: −log10 of the molar value. In brackets after ≈: the same amount, converted by molar mass.

Experiments:
glutathione transferase = molecular target: T1, glutathione transferase (Rattus norvegicus, UniProt P04905); assay: Glutathione transferase inhibition activity (3,4-dichloronitrobenzene/glutathione, absorption at 345 nm); assay type: biochemical
T1 construct: obtained from a homogenate of rat liver; from tissue; host or cells: rat liver homogenate, partially purified by DEAE-cellulose column and ammonium sulfate salting-out
T1 sequence (P04905 2-218 limits assumed): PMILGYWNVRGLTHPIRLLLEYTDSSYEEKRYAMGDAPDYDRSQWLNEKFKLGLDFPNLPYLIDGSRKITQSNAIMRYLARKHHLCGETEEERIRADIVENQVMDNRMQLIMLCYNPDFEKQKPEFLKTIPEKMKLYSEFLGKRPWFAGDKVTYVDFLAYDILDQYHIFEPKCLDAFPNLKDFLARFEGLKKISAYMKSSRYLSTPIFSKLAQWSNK
Description: The glutathione transferase inhibition activity was determined by a modified method based on the known method described in Biochemical and Biophysical Research Communications, 112, 980-985 (1983).
A test tube was charged with a solution mixture consisting of (a) 0.1 ml of 90 mM glutathione (reduction type), (b) 0.05 ml of 20 mM 3,4-dichloronitrobenzene, (c) 1.7 ml of 0.1M potassium phosphate buffer solution (pH 7.4) and (d) 0.1 ml of an aqueous solution containing the test compound. The solution mixture was heated to 37° C. for 3 minutes, and admixed with 0.05 ml of a glutathione transferase solution to effect a reaction at 37° C. for 30 minutes. The glutathione transferase solution employed was one which had been obtained from a homogenate of rat liver and which had been patially refined by means of a DEAE-cellulose column and of salting out-operation with ammonium sulfate.
After the completion of the reaction, the sample was measured for the light absorption (a) at 345 nm. At the same time, a control sample which was free of the test compound and which contained only the buffer solution was measured for the light absorption (b) at 345 nm.
The glutathione transferase inhibition activity was determined according to the formula: […]
IC50, which is the concentration of a test compound required for 50% inhibition, was recorded.

[1] = system: murine spleen cells (LPS-induced lymphocyte blastogenesis); assay: Effect on LPS-induced murine lymphocyte blastogenesis in vitro (Test 4); assay type: cell-based, BALB/c mouse
Description: (§1) In lymphocyte blast formation reaction, use was made of benastatin B as a solution prepared in a manner, wherein benastatin B was dissolved in methanol and admixed with PBS(-), with the proviso that the concentration of methanol in the final solution was 0.5%.
(§2) (a) Effect on lymphocyte blast formation reaction
(§3) For the cultivation, use was made of RPMI 1640 culture medium supplemented with 20% bovine fetus serum, 25 mM Hepes buffer, 100 μg/ml streptomycin and 100 units/ml penicillin G. The cultivation was carried out in a microplate (COSTAR) with flat bottom and with 96 wells. As the mitogens, lipopolysaccharide (LPS) and concanavalin A (Con A) were used at the final concentrations of 100 μg/ml and 5 μg/ml, respectively.
(§4) Spleen cells were taken out from BALB/c mouse (female, at most 20 weeks old) to prepare a unicellular dispersion of spleen cells. This dispersion was subjected to a hyper shock treatment to remove erythrocytes therefrom. The resulting spleen cell sample was directly used in the test employing LPS. Alternatively, the spleen cell sample was filtered through Nylon Fiber (manufactured by Wako Jun-yaku Co., Ltd.) for removing […] therefrom, and then the cell sample was used in the test employing Con A.
(§5) Each well was charged with 0.2 ml of a test sample containing 2×10^5 murine spleen cells and the test compound at a predetermined concentration. The cultivation was effected for 72 hours. Before 8 hours from the termination of the cultivation, the wells each were charged with 37 KBq of [^3 H]-thymidine in order to determine the amount of thymidine taken into the cells. The effect of the test compound was estimated by comparing the test samples with the control samples, with respect to the amount of [^3 H]-thymidine taken into the cells.

[2] = system: murine spleen cells (Con A-induced lymphocyte blastogenesis); assay: Effect on Con A-induced murine lymphocyte blastogenesis in vitro (Test 4); assay type: cell-based, BALB/c mouse; conditions: Mus musculus, 72 h
Description: as §1, §2, §3, §4, §5

[3] = system: graft versus host reaction (GvH); assay: Effect on graft versus host reaction (GvH) in vivo; design: species or system mouse (C57BL/6 spleen cells into BDF1 mouse); conditions: for Spleen/body weight / Index (spleen/body weight; non induced = 1.00): subcutaneous, 3 days, day 7; for Index (spleen/body weight; non induced = 1.00): induced = 1.84
Excerpt: In the graft versus host reaction (GvH), use was made of benastatin B dissolved in physiological saline.
(b) Effect on graft versus host reaction (GvH)
The effect on GvH was estimated according to a modified method based on the method described in M. Simonsen et al, "A study of the graft versus host reaction in transplantation to embryos, F1 hybrids, and irradiated animals", Ann. N.Y. Acad. Sci., 73, 834-841 ([…]).
Spleen cells were taken out from C57BL/6 mouse (female, 10 weeks old) to prepare a murine spleen cell sample containing 5×10^6 spleen cells according to the method as mentioned above. The spleen cell sample was transplanted into the abdominal cavity of BDF1 mouse (7 days old) as the F1 acceptor. The test compound at a predetermined concentration was subcutaneously injected over a period of time of 3 days including the initial day of said transplantation. After 7 days from the inital transplantation, measurements were made about the body weight and the spleen weight of the BDF1 mouse to calculate the ratio (mg/g) of spleen weight (mg) to body weight (g).

mouse = assay: Toxicity on administration to the abdominal cavity; assay type: in vivo; conditions: 100 mg/kg
Excerpt: Benastatins A and B were each administered to the abdominal cavity of a mouse to examine the toxicity thereof.

[4] = system: Bacillus cereus ATCC10702; assay: Agar dilution assay, minimum growth inhibition concentration; assay type: cell-based
Description: (§6) The minimum of microorganism growth inhibition concentrations of benastatins A and B were determined for various bacteria, east and fungi according to a conventional agar dilution assay method. It will be seen from Table 1 that benastatins A and B have a satisfactory antimicrobial activity, particularly against gram-positive bacteria, etc.

[5] = system: Bacillus subtilis NRRL B-558; assay: as above; assay type: cell-based; conditions: NRRLB558
Description: as §6

Cochliobolus miyabeanus = assay: as above; assay type: cell-based; conditions: Bipolaris oryzae
Description: as §6

[6] = system: Corynebacterium bovis 1810; assay: as above; assay type: cell-based
Description: as §6

[7] = system: Cryptococcus neoformans F-10; assay: as above; assay type: cell-based; conditions: F10
Description: as §6

Micrococcus luteus FDA16 = assay: as above; assay type: cell-based
Description: as §6

[8] = system: Staphylococcus aureus MS9610; assay: as above; assay type: cell-based
Description: as §6

[9] = system: Staphylococcus aureus Smith; assay: as above; assay type: cell-based
Description: as §6

[10] = system: Staphylococcus aureus No. 5 (MRSA); assay: as above; assay type: cell-based; conditions: read-out: Minimum growth-inhibition concentration
[11] = system: Staphylococcus aureus No. 17 (MRSA); assay: as above; assay type: cell-based; conditions: read-out: Minimum growth-inhibition concentration
Escherichia coli NIHJ = assay: as above; assay type: cell-based; conditions: Escherichia coli, read-out: Minimum growth-inhibition concentration
[12] = system: Shigella dysenteriae JS11910; assay: as above; assay type: cell-based; conditions: JS11910, read-out: Minimum growth-inhibition concentration
Salmonella typhi T-63 = assay: as above; assay type: cell-based; conditions: Salmonella enterica
Proteus rettgeri GN311 = assay: as above; assay type: cell-based; conditions: Providencia rettgeri, GN311, read-out: Minimum growth-inhibition concentration
[13] = system: Pseudomanas aeruginosa A3; assay: as above; assay type: cell-based; conditions: read-out: Minimum growth-inhibition concentration
[14] = system: Klebsiella pneumoniae PCI602; assay: as above; assay type: cell-based; conditions: Klebsiella pneumoniae, PCI602, read-out: Minimum growth-inhibition concentration
[15] = system: Mycabacterium smegmatis ATCC607; assay: as above; assay type: cell-based; conditions: read-out: Minimum growth-inhibition concentration
Candida tropicalis F-1 = assay: as above; assay type: cell-based; conditions: Candida tropicalis, F1, read-out: Minimum growth-inhibition concentration
[16] = system: Saccharomyces cerevisiae F-7; assay: as above; assay type: cell-based; conditions: Saccharomyces cerevisiae, F7, read-out: Minimum growth-inhibition concentration
Pyricularia oryzae = assay: microbe, parasite or virus in culture; assay type: cell-based; conditions: read-out: Minimum growth-inhibition concentration
Aspergillus niger F-16 = assay: Agar dilution assay, minimum growth inhibition concentration; assay type: cell-based; conditions: Aspergillus niger, F16, read-out: Minimum growth-inhibition concentration
[17] = Mus musculus, Lymphocyte, 72 h, read-out: Stimulation index LPS
[18] = read-out: Stimulation index Con A

CCCCCc1cc2c(c(O)c1C(=O)O)-c1cc3c(c(O)c1CC2)C(=O)c1c(O)cc(O)cc1C3(C)C [Benastatin B, benastatin B]
pIC50 (glutathione transferase): 5.74
activity at 6.25 µg/mL [1, 17]: 138%
activity at 12.5 µg/mL [1, 17]: 58.9%
activity at 50 µg/mL [1, 17]: 0.4%
activity at 3.13 µg/mL ([1]; Mus musculus, Lymphocyte, 72 h, 3.13 μg/ml, control = 100, read-out: Stimulation index LPS): 148%
activity at 25 µg/mL ([1]; Mus musculus, Lymphocyte, 72 h, 25 μg/ml, control = 100, read-out: Stimulation index LPS): 0.2%
activity at 100 µg/mL ([1]; Mus musculus, Lymphocyte, 72 h, 100 μg/ml, control = 100, read-out: Stimulation index LPS): 0.2%
minimal effective concentration ([1]; Mus musculus, Lymphocyte, 72 h, read-out: concentration that significantly suppresses LPS-induced lymphocyte blast formation): ≥ 12.5 µg/mL
effect on LPS-induced lymphocyte blast formation at a low concentration ([1]; low concentration): potentiates
activity at 3.13 µg/mL ([2]; 3.13 μg/ml, control = 100, read-out: Stimulation index Con A): 106%
activity at 25 µg/mL ([2]; 25 μg/ml, control = 100, read-out: Stimulation index Con A): 1%
activity at 100 µg/mL ([2]; 100 μg/ml, control = 100, read-out: Stimulation index Con A): 0.9%
activity at 6.25 µg/mL [2, 18]: 12.6%
activity at 12.5 µg/mL [2, 18]: 26.8%
activity at 50 µg/mL [2, 18]: 1%
minimal effective concentration ([2]; read-out: concentration that significantly suppresses Con A-induced lymphocyte blast formation): ≥ 6.25 µg/mL
Spleen/body weight ([3]; 0.5 mg/kg): 12.5 ± 2.2 mg/kg
Index (spleen/body weight; non induced = 1.00) ([3]; 0.5 mg/kg): 2.78
Spleen/body weight ([3]; 5 mg/kg): 11.5 ± 0.8 mg/kg
Index (spleen/body weight; non induced = 1.00) ([3]; 5 mg/kg): 2.56
Spleen/body weight ([3]; 50 mg/kg): 10.6 ± 1.3 mg/kg
Index (spleen/body weight; non induced = 1.00) ([3]; 50 mg/kg): 2.36
effect on GvH ([3]; various amounts, strongest in a lower amount): significantly promotes GvH
Toxicity (mouse): No toxicity was observed
MIC [4]: 3.12 µg/mL (≈ 6.21 µM)
MIC [5]: 3.12 µg/mL (≈ 6.21 µM)
MIC (Cochliobolus miyabeanus): > 25 µg/mL
MIC [6]: 3.12 µg/mL (≈ 6.21 µM)
MIC [7]: 50 µg/mL (≈ 99.5 µM)
MIC (Micrococcus luteus FDA16): 3.12 µg/mL (≈ 6.21 µM)
MIC [8]: 3.12 µg/mL (≈ 6.21 µM)
MIC [9]: 3.12 µg/mL (≈ 6.21 µM)
MIC [10]: 3.12 µg/mL (≈ 6.21 µM)
MIC [11]: 3.12 µg/mL (≈ 6.21 µM)
MIC (Escherichia coli NIHJ): 100 µg/mL (≈ 199 µM)
MIC [12]: > 50 µg/mL
MIC (Salmonella typhi T-63): > 50 µg/mL
MIC (Proteus rettgeri GN311): 50 µg/mL (≈ 99.5 µM)
MIC [13]: 50 µg/mL (≈ 99.5 µM)
MIC [14]: > 50 µg/mL
MIC [15]: 12.5 µg/mL (≈ 24.9 µM)
MIC (Candida tropicalis F-1): > 50 µg/mL
MIC [16]: > 50 µg/mL
MIC (Pyricularia oryzae): 50 µg/mL (≈ 99.5 µM)
MIC (Aspergillus niger F-16): > 100 µg/mL
